Tests used:
human orexin-2 receptor = human orexin-2 receptor (Homo sapiens (Human), UniProt O43614); test: FLIPR Ca2+ flux assay, hOX2R; assay type: cell-based; conditions: CHO cells expressing the receptor; agonist 70 pM Ala-6,12 human orexin-A
Procedure: The utility of the compounds in accordance with the present invention as orexin receptor OX1R and/or OX2R antagonists may be readily determined without undue experimentation by methodology well known in the art, including the “FLIPR Ca^2+ Flux Assay” (Okumura et al., Biochem. Biophys. Res. Comm. 280:976-981, 2001). In a typical experiment the OX1 and OX2 receptor antagonistic activity of the compounds of the present invention was determined in accordance with the following experimental method. For intracellular calcium measurements, Chinese hamster ovary (CHO) cells expressing the rat orexin-1 receptor or the human orexin-2 receptor, are grown in Iscove's modified DMEM containing 2 mM L-glutamine, […], 1% hypoxanthine-thymidine supplement, 100 U/ml penicillin, 100 μg/ml streptomycin and 10% heat-inactivated fetal calf serum (FCS). The cells are seeded at 20,000 cells/well into Becton-Dickinson black 384-well clear bottom sterile plates coated with poly-D-lysine. All reagents were from GIBCO-Invitrogen Corp. The seeded plates are incubated overnight at 37° C. and 5% CO2. Ala-6,12 human orexin-A as the agonist is prepared as a 1 mM stock solution in 1% bovine serum albumin (BSA) and diluted in assay buffer (HBSS containing 20 mM HEPES, 0.1% BSA and 2.5 mM probenecid, pH7.4) for use in the assay at a final concentration of 70 pM. Test compounds are prepared as 10 mM stock solution in DMSO, then diluted in 384-well plates, first in DMSO, then assay buffer. On the day of the assay, cells are washed 3 times with 100 μl assay buffer and then incubated for 60 min (37° C., 5% CO2) in 60 μl assay buffer containing 1 μM Fluo-4AM ester, 0.02% pluronic acid, and 1% BSA. The dye loading solution is then aspirated and cells are washed 3 times with 100 μl assay buffer. 30 μl of that same buffer is left in each well. Within the Fluorescent Imaging Plate Reader (FLIPR, Molecular Devices), test compounds are added to the plate in a volume of 25 μl, incubated for 5 min and finally 25 μl of agonist is added. Fluorescence is measured for each well at 1 second intervals for 5 minutes and the height of each fluorescence peak is compared to the height of the fluorescence peak induced by 70 pM Ala-6,12 orexin-A with buffer in place of antagonist. For each antagonist, IC50 value (the concentration of compound needed to inhibit 50% of the agonist response) is determined. Alternatively, compound potency can be assessed by a radioligand binding assay (described in Bergman et. al. Bioorg. Med. Chem. Lett. 2008, 18, 1425-1430) in which the inhibition constant (Ki) is determined in membranes prepared from CHO cells expressing either the OX1 or OX2 receptor. The intrinsic orexin receptor antagonist activity of a compound which may be used in the present invention may be determined by these assays.

[1] = molecular target: hOX1R (orexin-1 receptor) (Homo sapiens, UniProt O43613); test: FLIPR Ca2+ flux assay, hOX1R; assay type: cell-based; conditions: CHO cells expressing the receptor; agonist 70 pM Ala-6,12 human orexin-A

Chain of human orexin-2 receptor (O43614 whole entry): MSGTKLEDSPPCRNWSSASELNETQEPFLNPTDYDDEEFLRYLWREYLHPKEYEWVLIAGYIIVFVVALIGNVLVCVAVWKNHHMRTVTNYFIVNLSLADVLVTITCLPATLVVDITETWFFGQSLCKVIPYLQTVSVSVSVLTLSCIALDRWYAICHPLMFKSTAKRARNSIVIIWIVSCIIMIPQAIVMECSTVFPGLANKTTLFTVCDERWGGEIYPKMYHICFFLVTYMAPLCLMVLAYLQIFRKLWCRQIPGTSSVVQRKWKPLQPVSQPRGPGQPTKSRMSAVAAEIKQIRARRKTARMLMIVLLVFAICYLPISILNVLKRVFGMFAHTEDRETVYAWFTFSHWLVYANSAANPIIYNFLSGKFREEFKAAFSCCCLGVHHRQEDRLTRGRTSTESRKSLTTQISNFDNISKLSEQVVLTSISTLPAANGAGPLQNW

Row | Structure (SMILES) | IC50 (human orexin-2 receptor) | IC50 [1]
1 | CCN(CCn1nc(C)c(C(C)(C)O)n1)C(=O)c1ccccc1C1CCC1 [Example 40, 2-cyclobutyl-N-ethyl-N-(2-(4-(2-hydroxypropan-2-yl)-5-methyl-2H-1,2,3-triazol-2-yl)ethyl)benzamide] | 13 nM | 1170 nM
2 | CCN(CCn1nc(C)c(C(C)(C)O)n1)C(=O)c1ccccc1N1CCCC1 [Example 41, N-ethyl-N-(2-(4-(2-hydroxypropan-2-yl)-5-methyl-2H-1,2,3-triazol-2-yl)ethyl)-2-(pyrrolidin-1-yl)benzamide] | 15 nM | 2100 nM
3 | CCN(CCn1nc(C)c(C(C)(C)O)n1)C(=O)c1ccccc1-n1ncnn1 [Example 42, N-ethyl-N-(2-(4-(2-hydroxypropan-2-yl)-5-methyl-2H-1,2,3-triazol-2-yl)ethyl)-2-(2H-tetrazol-2-yl)benzamide] | 29 nM | > 10000 nM
4 | CCN(CCn1nc(C)c(C(C)(C)O)n1)C(=O)c1ncccc1-n1nccn1 [Example 43, N-ethyl-N-(2-(4-(2-hydroxypropan-2-yl)-5-methyl-2H-1,2,3-triazol-2-yl)ethyl)-3-(2H-1,2,3-triazol-2-yl)picolinamide] | 180 nM | > 10000 nM
5 | CCN(CCn1nc(C)c(C(C)(C)O)n1)C(=O)c1ncccc1-c1ccccc1 [Example 44, N-ethyl-N-(2-(4-(2-hydroxypropan-2-yl)-5-methyl-2H-1,2,3-triazol-2-yl)ethyl)-3-phenylpicolinamide] | 106 nM | > 10000 nM
6 | CCN(CCn1nc(C)c(C(C)(C)O)n1)C(=O)c1nccnc1-c1ccccn1 [Example 45, N-ethyl-N-(2-(4-(2-hydroxypropan-2-yl)-5-methyl-2H-1,2,3-triazol-2-yl)ethyl)-3-(pyridin-2-yl)pyrazine-2-carboxamide] | 87 nM | > 10000 nM
7 | CCN(CCn1nc(C)c(C(C)(C)O)n1)C(=O)c1nccnc1-n1cccn1 [Example 47, N-ethyl-N-(2-(4-(2-hydroxypropan-2-yl)-5-methyl-2H-1,2,3-triazol-2-yl)ethyl)-3-(1H-pyrazol-1-yl)pyrazine-2-carboxamide] | 239 nM | > 10000 nM
8 | CCN(CCn1nc(C)c(C(C)(C)O)n1)C(=O)c1cccnc1-n1cccn1 [Example 48, N-ethyl-N-(2-(4-(2-hydroxypropan-2-yl)-5-methyl-2H-1,2,3-triazol-2-yl)ethyl)-2-(1H-pyrazol-1-yl)nicotinamide] | 13 nM | 7520 nM
9 | CCN(CCn1cc(C(C)(C)O)cn1)C(=O)c1ccccc1-n1nccn1 [Example 49, N-Ethyl-N-{2-[4-(1-hydroxy-1-methylethyl)-1H-pyrazol-1-yl]ethyl}-2-(2H-1,2,3-triazol-2-yl)benzamide] | 35 nM | > 10000 nM
10 | CCN(CCn1ccc(C(C)(C)O)n1)C(=O)c1ccccc1-n1nccn1 [Example 50, N-Ethyl-N-{2-[3-(1-hydroxy-1-methylethyl)-1H-pyrazol-1-yl]ethyl}-2-(2H-1,2,3-triazol-2-yl)benzamide] | 23 nM | > 10000 nM
